Data published in US6087119A, “Method for determining the catalytic activity of factor IXa” (Roche Diagnostics GmbH, priority 1996, dated 2000).
Read-outs that look alike come from different tables or passages of the source. Each block holds one molecule with its values, some of them ahead of it.

Key:
native FIXa (human) [1] = target: T1, native FIXa (human) (Homo sapiens, UniProt P00740); conditions: MeSO2-D-HHT-Gly-Arg-pNA
Source text: Influence of the pH on the Activity of rFIXa and Native FIXa in the Presence of Ethylene Glycol
1.02 mmol/l MeSO2 -D-HHT-Gly-Arg-pNA, MOC-D-Nle-Gly-Arg-pNA or MeSO2 -D-CHG-Gly-Arg-pNA
0.14 μmol/l native FIXa (human)

rFIXa (human) [2] = target: T2, rFIXa (human) (Homo sapiens, UniProt P00740); experiment: Influence of the pH on the activity of rFIXa in the presence of ethylene glycol; type: biochemical; parameters: coding for the FIX protease domain from amino acid position 181 to 415; Met (ATG start codon) (N); made in house; conditions: 25% ethylene glycol; for increase of cleavage rates: pH 7.0-10.0; for cleavage rate mA/min: rFIXa (human)
Source text: 0.28 μmol/l rFIXa (human)
Target sequence in this assay (P00740 227-461): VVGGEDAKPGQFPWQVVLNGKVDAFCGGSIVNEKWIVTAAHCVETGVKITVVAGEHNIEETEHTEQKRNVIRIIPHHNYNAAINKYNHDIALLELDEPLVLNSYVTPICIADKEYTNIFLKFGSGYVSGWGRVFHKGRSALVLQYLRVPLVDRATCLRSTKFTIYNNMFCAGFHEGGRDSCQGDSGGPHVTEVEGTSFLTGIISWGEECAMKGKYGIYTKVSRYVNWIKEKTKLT
Target sequence in this assay (P00740 131-226): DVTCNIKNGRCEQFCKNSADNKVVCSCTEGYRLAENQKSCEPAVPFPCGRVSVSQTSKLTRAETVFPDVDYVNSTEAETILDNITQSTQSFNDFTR

native FIXa (human) [3] = target: T1, native FIXa (human); experiment: Determination of the dissociation constant Ki according to DIXON, native FIXa; type: biochemical; parameters: 0.14 μmol/l native FIXa (human); conditions: pH 8.5, 33% ethylene glycol; for 1/V: 0.07 μmol/l native FIXa
Procedure: (§1) Determination of the Dissociation Constant Ki According to the Method of DIXON
(§2) 42 mmol/l Tris-HCl, pH 8.5
(§3) inhibitor in stepped concentrations (0, 20.4 and 40.8 μmol/l) […]
0.07 μmol/l native FIXa (human)
(§4) TIPPS-(3-Am)Phe-iNip-OH was used as the inhibitor and the inhibitory effect was determined as an example for two substrates under optimal conditions (pH 8.5, 33% ethylene glycol).

rFIXa (human) [4] = target: T2, rFIXa (human); experiment: Determination of the dissociation constant Ki according to DIXON, rFIXa; type: biochemical; parameters: coding for the FIX protease domain from amino acid position 181 to 415; Met (ATG start codon) (N); made in house; conditions: pH 8.5, 33% ethylene glycol
Procedure: as §1, §2, §3
Target sequence in this assay (P00740 227-461 limits assumed): as the sequence (P00740 227-461) above
Target sequence in this assay (P00740 131-226 limits assumed): as the sequence (P00740 131-226) above
0.14 μmol/l rFIXa (human) […]
as §4

T1 sequence (P00740 227-461 limits assumed): as the sequence (P00740 227-461) above
T1 sequence (P00740 47-191 partner limits assumed): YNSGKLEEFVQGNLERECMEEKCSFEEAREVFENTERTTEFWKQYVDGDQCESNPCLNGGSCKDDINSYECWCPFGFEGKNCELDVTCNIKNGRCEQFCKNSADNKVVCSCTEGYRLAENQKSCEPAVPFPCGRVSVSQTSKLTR

SMILES: OCCO [Ethylene glycol]
- cleavage rate mA/min (native FIXa (human) [1]; pH 7.0, 25% ethylene glycol): 23.7 mA/min
- cleavage rate mA/min (native FIXa (human) [1]; pH 7.5, 25% ethylene glycol): 63.0 mA/min
- cleavage rate mA/min (native FIXa (human) [1]; pH 8.0, 25% ethylene glycol): 101.0 mA/min
- cleavage rate mA/min (native FIXa (human) [1]; pH 8.25, 25% ethylene glycol): 106.7 mA/min
- cleavage rate mA/min (native FIXa (human) [1]; pH 8.5, 25% ethylene glycol): 115.4 mA/min
- cleavage rate mA/min (native FIXa (human) [1]; pH 8.75, 25% ethylene glycol): 110.9 mA/min
- cleavage rate mA/min (native FIXa (human) [1]; pH 9.0, 25% ethylene glycol): 105.6 mA/min
- cleavage rate mA/min (native FIXa (human) [1]; pH 9.5, 25% ethylene glycol): 100.6 mA/min
- cleavage rate mA/min (native FIXa (human) [1]; pH 10.0, 25% ethylene glycol): 77.2 mA/min
- increase of cleavage rates (rFIXa (human) [2]; substrate MOC-D-Nle-Gly-Arg-pNA): 14 fold
- increase of cleavage rates (rFIXa (human) [2]; substrate MeSO2-D-CHG-Gly-Arg-pNA): 20 fold
- increase of cleavage rates (rFIXa (human) [2]; substrate MeSO2-D-HHT-Gly-Arg-pNA): 10 fold
- cleavage rate mA/min (rFIXa (human) [2]; pH 7.0, MOC-D-Nle-Gly-Arg-pNA): 31.5 mA/min
- cleavage rate mA/min (rFIXa (human) [2]; pH 7.0, MeSO2-D-CHG-Gly-Arg-pNA): 154.7 mA/min
- cleavage rate mA/min (rFIXa (human) [2]; pH 7.0, MeSO2-D-HHT-Gly-Arg-pNA): 56.5 mA/min
- cleavage rate mA/min (rFIXa (human) [2]; pH 7.5, MOC-D-Nle-Gly-Arg-pNA): 70.1 mA/min
- cleavage rate mA/min (rFIXa (human) [2]; pH 7.5, MeSO2-D-CHG-Gly-Arg-pNA): 289.8 mA/min
- cleavage rate mA/min (rFIXa (human) [2]; pH 7.5, MeSO2-D-HHT-Gly-Arg-pNA): 124.5 mA/min
- cleavage rate mA/min (rFIXa (human) [2]; pH 8.0, MOC-D-Nle-Gly-Arg-pNA): 99.7 mA/min
- cleavage rate mA/min (rFIXa (human) [2]; pH 8.0, MeSO2-D-CHG-Gly-Arg-pNA): 372.4 mA/min
- cleavage rate mA/min (rFIXa (human) [2]; pH 8.0, MeSO2-D-HHT-Gly-Arg-pNA): 173.6 mA/min
- cleavage rate mA/min (rFIXa (human) [2]; pH 8.25, MOC-D-Nle-Gly-Arg-pNA): 102.7 mA/min
- cleavage rate mA/min (rFIXa (human) [2]; pH 8.25, MeSO2-D-CHG-Gly-Arg-pNA): 382.2 mA/min
- cleavage rate mA/min (rFIXa (human) [2]; pH 8.25, MeSO2-D-HHT-Gly-Arg-pNA): 176.0 mA/min
- cleavage rate mA/min (rFIXa (human) [2]; pH 8.5, MOC-D-Nle-Gly-Arg-pNA): 104.3 mA/min
- cleavage rate mA/min (rFIXa (human) [2]; pH 8.5, MeSO2-D-CHG-Gly-Arg-pNA): 389.8 mA/min
- cleavage rate mA/min (rFIXa (human) [2]; pH 8.5, MeSO2-D-HHT-Gly-Arg-pNA): 182.1 mA/min
- cleavage rate mA/min (rFIXa (human) [2]; pH 8.75, MOC-D-Nle-Gly-Arg-pNA): 101.6 mA/min
- cleavage rate mA/min (rFIXa (human) [2]; pH 8.75, MeSO2-D-CHG-Gly-Arg-pNA): 395.6 mA/min
- cleavage rate mA/min (rFIXa (human) [2]; pH 8.75, MeSO2-D-HHT-Gly-Arg-pNA): 170.7 mA/min
- cleavage rate mA/min (rFIXa (human) [2]; pH 9.0, MOC-D-Nle-Gly-Arg-pNA): 97.3 mA/min
- cleavage rate mA/min (rFIXa (human) [2]; pH 9.0, MeSO2-D-CHG-Gly-Arg-pNA): 373.3 mA/min
- cleavage rate mA/min (rFIXa (human) [2]; pH 9.0, MeSO2-D-HHT-Gly-Arg-pNA): 164.1 mA/min
- cleavage rate mA/min (rFIXa (human) [2]; pH 9.5, MOC-D-Nle-Gly-Arg-pNA): 70.7 mA/min
- cleavage rate mA/min (rFIXa (human) [2]; pH 9.5, MeSO2-D-CHG-Gly-Arg-pNA): 255.6 mA/min
- cleavage rate mA/min (rFIXa (human) [2]; pH 9.5, MeSO2-D-HHT-Gly-Arg-pNA): 112.0 mA/min
- cleavage rate mA/min (rFIXa (human) [2]; pH 10.0, MOC-D-Nle-Gly-Arg-pNA): 68.3 mA/min
- cleavage rate mA/min (rFIXa (human) [2]; pH 10.0, MeSO2-D-CHG-Gly-Arg-pNA): 244.5 mA/min
- cleavage rate mA/min (rFIXa (human) [2]; pH 10.0, MeSO2-D-HHT-Gly-Arg-pNA): 110.1 mA/min

- 1/V (native FIXa (human) [3]; inhibitor 20.4 μmol/l, MeSO2-D-HHT-Gly-Arg-pNA 0.25 μmol/l): 129 min/mA
- 1/V (native FIXa (human) [3]; inhibitor 20.4 μmol/l, MeSO2-D-HHT-Gly-Arg-pNA 0.51 μmol/l): 77.5 min/mA
- 1/V (native FIXa (human) [3]; inhibitor 20.4 μmol/l, MeSO2-D-HHT-Gly-Arg-pNA 1.02 μmol/l): 29.5 min/mA
- 1/V (native FIXa (human) [3]; inhibitor 40.8 μmol/l, MeSO2-D-HHT-Gly-Arg-pNA 0.25 μmol/l): 255 min/mA
- 1/V (native FIXa (human) [3]; inhibitor 40.8 μmol/l, MeSO2-D-HHT-Gly-Arg-pNA 0.51 μmol/l): 154 min/mA
- 1/V (native FIXa (human) [3]; inhibitor 40.8 μmol/l, MeSO2-D-HHT-Gly-Arg-pNA 1.02 μmol/l): 53.2 min/mA
- Ki (native FIXa (human) [3]; native FIXa, substrate MeSO2-D-HHT-Gly-Arg-pNA): 9 µM
- 1/V (rFIXa (human) [4]; inhibitor 20.4 μmol/l, MeSO2-D-CHG-Gly-Arg-pNA 0.25 μmol/l, 0.057 μmol/l rFIXa): 78.1 min/mA
- 1/V (rFIXa (human) [4]; inhibitor 20.4 μmol/l, MeSO2-D-CHG-Gly-Arg-pNA 0.51 μmol/l, 0.057 μmol/l rFIXa): 55.6 min/mA
- 1/V (rFIXa (human) [4]; inhibitor 20.4 μmol/l, MeSO2-D-CHG-Gly-Arg-pNA 1.02 μmol/l, 0.057 μmol/l rFIXa): 23.8 min/mA
- 1/V (rFIXa (human) [4]; inhibitor 20.4 μmol/l, MeSO2-D-HHT-Gly-Arg-pNA 0.25 μmol/l, 0.14 μmol/l rFIXa): 69.4 min/mA
- 1/V (rFIXa (human) [4]; inhibitor 20.4 μmol/l, MeSO2-D-HHT-Gly-Arg-pNA 0.51 μmol/l, 0.14 μmol/l rFIXa): 43.5 min/mA
- 1/V (rFIXa (human) [4]; inhibitor 20.4 μmol/l, MeSO2-D-HHT-Gly-Arg-pNA 1.02 μmol/l, 0.14 μmol/l rFIXa): 16.6 min/mA
- 1/V (rFIXa (human) [4]; inhibitor 40.8 μmol/l, MeSO2-D-CHG-Gly-Arg-pNA 0.25 μmol/l, 0.057 μmol/l rFIXa): 153 min/mA
- 1/V (rFIXa (human) [4]; inhibitor 40.8 μmol/l, MeSO2-D-CHG-Gly-Arg-pNA 0.51 μmol/l, 0.057 μmol/l rFIXa): 109 min/mA
- 1/V (rFIXa (human) [4]; inhibitor 40.8 μmol/l, MeSO2-D-CHG-Gly-Arg-pNA 1.02 μmol/l, 0.057 μmol/l rFIXa): 44.6 min/mA
- 1/V (rFIXa (human) [4]; inhibitor 40.8 μmol/l, MeSO2-D-HHT-Gly-Arg-pNA 0.25 μmol/l, 0.14 μmol/l rFIXa): 137 min/mA
- 1/V (rFIXa (human) [4]; inhibitor 40.8 μmol/l, MeSO2-D-HHT-Gly-Arg-pNA 0.51 μmol/l, 0.14 μmol/l rFIXa): 90.9 min/mA
- 1/V (rFIXa (human) [4]; inhibitor 40.8 μmol/l, MeSO2-D-HHT-Gly-Arg-pNA 1.02 μmol/l, 0.14 μmol/l rFIXa): 31.2 min/mA
- Ki (rFIXa (human) [4]; rFIXa, substrate MeSO2-D-CHG-Gly-Arg-pNA): 16 µM
- Ki (rFIXa (human) [4]; recombinant FIXa, substrate MeSO2-D-HHT-Gly-Arg-pNA): 12 µM
SMILES: CC(C)c1cc(C(C)C)c(S(=O)(=O)NC(Cc2cccc(C(=N)N)c2)C(=O)N2CCC(C(=O)O)CC2)c(C(C)C)c1 (stereo not drawn) [TIPPS-(3-Am)Phe-iNip-OH, Nα-(2,4,6-triisopropylbenzenesulfonyl)-3-amidino-(D,L)-phenylalanine-isonipecotic acid]
